{
  "source": "patent US20260317367A1",
  "about": "“SALTS INCLUDING CRYSTALLINE SALTS OF 25-HYDROXY-CHOLEST-5-EN-3-SULFATE AND METHODS FOR PREPARING SAME” (Durect Corporation, priority 2022, published 2026)",
  "type_in_all_cases": "physicochemical",
  "key": {"[1]": {"assay": "Solid-state chemical stability of 25HC3S salts at 2-8° C., 60° C. and 80° C. (HPLC assay and degradation products)", "conditions": "for Physical and chemical solid-state stability (comments) / dissolution of decomposed samples in diluent / degradants observed (comments): listed as 25HC3S Magnesium", "procedure,_shortened": "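Crystalline 25HC3S salts (~25 mg powder per vial) stored at 2-8° C. or 80° C., pulled at 3 and 6 weeks; some 3-week 2-8° C. vials moved to 60° C. for 1 week. Dissolved in 100% methanol (sonication/vortexing, centrifugation or dilution), then HPLC against 25HC3S sodium standards (0.75-1.25 mg/mL) for assay and degradants.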"}, "[2]": {"assay": "Overall rank order of powder flowability (angle of repose and Hausner ratio)", "source_text": "Table C5 was generated by adding the relative rank order of the 25HC3S salts for angle of repose and Hausner ratio results, and creating an Over All Rank Order of the salts powder flowability. The salts with the lower overall rank order score had better powder flowability."}, "[3]": {"assay": "Angle of repose of 25HC3S salts", "conditions": "listed as 25HC3S magnesium", "procedure,_shortened": "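About 2 g of salt powder was poured through a 7 mm inner-diameter tube into a 21.14 mm rubber O-ring, forming a cone of fixed diameter. Cone height was measured with calipers and the angle of repose was calculated from it. Flow was classified per USP<1174>.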"}, "[4]": {"assay": "Thermogravimetric analysis (TGA), weight loss", "conditions": "up to 127° C.", "procedure,_shortened": "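Mettler-Toledo TGA/DSC3, calibrated with indium, tin and zinc, balance checked with calcium oxalate. Sample in a hermetically sealed aluminium pan with pierced lid, heated under nitrogen from ambient to 350° C at 10° C/min. Weight loss reported against sample temperature.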"}, "[5]": {"assay": "Final pH of the solubility sample solutions in aqueous media", "procedure,_shortened": "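25HC3S salts shaken as excess-solid suspensions in aqueous media at room temperature (210 motions/min) for one day. Aliquots centrifuged at 12000 rpm for 12–15 min; clear supernatant assayed undiluted by HPLC.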"}, "[6]": {"assay": "Appearance (color, clumping, flowability) of stored 25HC3S salts", "conditions": "for Appearance: listed as 25HC3S magnesium"}, "[7]": {"conditions": "rank, lower is better flow, listed as 25HC3S magnesium"}},
  "note": "Entries after “also recorded” stand apart in the source; their conditions may differ. Where a name gives a salt, the structure may show the parent alone.",
  "data": [
    {"compound": "CC(CCCC(C)(C)O)C1CCC2C3CC=C4CC(OS(=O)(=O)O)CCC4(C)C3CCC12C", "note": "(stereo not shown) [Salt #13]", "values": [
      {"measurement": "Assay", "setting": "[1]; 2-8° C., 3 wk, 30240 min, listed as 25HC3S magnesium", "value": 90.8, "unit": "% w/w"},
      {"measurement": "% Impurities, Total", "setting": "[1]; 2-8° C., 3 wk, ND = Not Detected, listed as 25HC3S magnesium", "value": 1.6, "unit": "%"},
      {"measurement": "Overall physical and chemical stability (in words)", "setting": "[1]; 2-8° C., 60° C., 80° C.", "value": "least physically and chemically stable"},
      {"measurement": "Overall physical and chemical stability (in words)", "setting": "[1]; 2-8° C., 60° C., 80° C., listed as magnesium", "value": "least stable"},
      {"measurement": "% Impurities, 25-HC", "setting": "[1]; 25-Hydroxy-Cholesterol, 2-8° C., 3 wk, ND = Not Detected, listed as 25HC3S magnesium", "value": 0.3, "unit": "%"},
      {"measurement": "Physical and chemical solid-state stability (comments)", "setting": "[1]; 60° C., 1 week", "value": "Totally decomposed after 1 week at 60 °C"},
      {"measurement": "dissolution of decomposed samples in diluent / degradants observed (comments)", "setting": "[1]; 60° C., 1 week", "value": "decomposed samples at 60 °C after 1 week did not dissolve in the diluent,; also recorded: therefore, no degradants were observed. However, the decomposed"},
      {"measurement": "Assay", "setting": "[1]; 60° C., 1 wk (after 3 weeks at 2-8° C.), 10080 min, listed as 25HC3S magnesium, 10080 min", "value": 0.0, "unit": "% w/w"},
      {"measurement": "% Recovery of 2-8° C./3 wk vs 60° C./1 wk", "setting": "[1]; 60° C., 1 wk, 10080 min, listed as 25HC3S magnesium", "value": 0.0, "unit": "%"},
      {"measurement": "Physical and chemical solid-state stability (comments)", "setting": "[1]; 80° C., 3 weeks", "value": "Totally decomposed after 1 week at 60 °C and after 3 weeks at 80 °C"},
      {"measurement": "dissolution of decomposed samples in diluent / degradants observed (comments)", "setting": "[1]; 80° C., 3 weeks", "value": "samples at 80 °C after 3 weeks may have dissolved slightly in the diluent,; also recorded: therefore, degradation products were observed"},
      {"measurement": "% Recovery", "setting": "[1]; 80° C., 3 wk, vs 2-8° C., 30240 min, listed as 25HC3S magnesium, 30240 min", "value": 0.0, "unit": "%"},
      {"measurement": "Assay", "setting": "[1]; 80° C., 3 wk, 30240 min, listed as 25HC3S magnesium", "value": 0.0, "unit": "% w/w"},
      {"measurement": "% Impurities, Total", "setting": "[1]; 80° C., 3 wk, ND = Not Detected, listed as 25HC3S magnesium", "value": 100, "unit": "%"},
      {"measurement": "Stability after 1 week at 60° C. (in words)", "setting": "[1]; solid state, 60° C., 1 week (after 3 weeks at 2-8° C.)", "value": "totally decomposed"},
      {"measurement": "Stability after 3 weeks at 80° C. (in words)", "setting": "[1]; solid state, 80° C., 3 weeks", "value": "totally decomposed"},
      {"measurement": "Powder flowability, overall (in words)", "setting": "[2]; angle of repose and compressibility index/Hausner ratio combined, listed as magnesium", "value": "poorer flowability"},
      {"measurement": "Angle of Repose Rank Order", "setting": "[2]; [7]", "value": 7},
      {"measurement": "Hausner Ratio Rank Order", "setting": "[2]; [7]", "value": 14},
      {"measurement": "Overall Rank Order (Total Score)", "setting": "[2]; sum of both ranks, lower is better flow, listed as 25HC3S magnesium", "value": 21},
      {"measurement": "Flow Property per USP<1174> Powder Flow", "setting": "[3]; classification by angle of repose", "value": "Fair - aid not needed"},
      {"measurement": "Angle of Repose", "setting": "[3]", "value": 37.7, "unit": "degrees"},
      {"measurement": "Angle of Repose, Rounded Whole Number", "setting": "[3]; rounded whole number", "value": 38, "unit": "degrees"},
      {"measurement": "Weight loss by TGA up to 127° C.", "setting": "[4]", "value": "about 1.5%"},
      {"measurement": "pH of the solubility sample, 0.9% Sodium Chloride", "setting": "[5]; 0.9% sodium chloride (blank 5.8), listed as 25HC3S magnesium", "value": 8.3},
      {"measurement": "pH of the solubility sample, 5% Dextrose", "setting": "[5]; 5% dextrose (blank 4.7), listed as 25HC3S magnesium", "value": 7.1},
      {"measurement": "pH of the solubility sample, FaSSGF", "setting": "[5]; FaSSGF (blank 1.5, 1.6)", "value": 1.6},
      {"measurement": "pH of the solubility sample, FaSSIF", "setting": "[5]; FaSSIF (blank 6.5, 6.5), listed as 25HC3S magnesium", "value": 6.5},
      {"measurement": "pH of the solubility sample, FeSSIF", "setting": "[5]; FeSSIF (blank 4.9, 5.0), listed as 25HC3S magnesium", "value": 4.9},
      {"measurement": "pH of the solubility sample, Water", "setting": "[5]; water (blank 6.3), listed as 25HC3S magnesium", "value": 8.7},
      {"measurement": "Appearance", "setting": "[6]; 2-8° C., 3 wk", "value": "White, free flowing powder, no clumping"},
      {"measurement": "Appearance", "setting": "[6]; 60° C., 1 wk (after 3 weeks at 2-8° C.)", "value": "Brown, melted material stuck to bottom"},
      {"measurement": "Appearance after 3 weeks at 80° C.", "setting": "[6]; 80° C., 3 weeks", "value": "completely burned"},
      {"measurement": "Appearance", "setting": "[6]; 80° C., 3 wk", "value": "Dark brown, melted material stuck to"}
    ]}
  ]
}
